Assay results published in PubChem BioAssay (NCI).
Several values for one entry are separate records, joined by “and”; a condition that tells them apart may be missing. Equal values may be shown once.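 Dose response: 5 concentrations. Exposure: 48 h. Format: 96-well plates. Endpoint: linear interpolation; highest concentration if not reached. GI50 is the concentration that inhibits growth by half. At the TGI there is no net growth.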 Numbered stars: 1 amine (or outer) side, 2 acyl side, 3 side chain; on linkers, the order of the positions; unused ones are H or OH. Bridge positions count the residues as written; N and C are the ends. Square brackets hold non-standard residues; d marks the D form. Peptide text beside a SMILES is read from it. I, II: the chains in the order shown. Actinocin(9to1) = Cc1c2oc3c(C)ccc(C(=O)[*:1])c3nc-2c(C(=O)[*:2])c(N)c1=O; aThr = C[C@H](O)[C@H](N)C(=O)O; NMeV = CN[C@H](C(=O)O)C(C)C; Sar = CNCC(=O)O

Legend:
Assay in all cases: NCI tumour cell line growth inhibition, 48 h
P388 leukemia = system: P388 leukemia
M19-MEL melanoma = system: M19-MEL melanoma
T-47D breast = system: T-47D breast
HOP-18 NSCLC = system: HOP-18 NSCLC
SNB-78 CNS = system: SNB-78 CNS
SN12K1 renal = system: SN12K1 renal
DMS 114 small cell lung = system: DMS 114 small cell lung
P388/ADR leukemia = system: P388/ADR leukemia
DMS 273 small cell lung = system: DMS 273 small cell lung
MCF7 breast = system: MCF7 breast
LXFL 529 NSCLC = system: LXFL 529 NSCLC
XF 498 CNS = system: XF 498 CNS
DLD-1 colon = system: DLD-1 colon
KM20L2 colon = system: KM20L2 colon
SNB-75 CNS = system: SNB-75 CNS
HS 578T breast = system: HS 578T breast
NCI/ADR-RES ovarian = system: NCI/ADR-RES ovarian
RXF 393 renal = system: RXF 393 renal
LOX IMVI melanoma = system: LOX IMVI melanoma
HL-60(TB) leukemia = system: HL-60(TB) leukemia
OVCAR-3 ovarian = system: OVCAR-3 ovarian
CCRF-CEM leukemia = system: CCRF-CEM leukemia
NCI-H23 lung = system: NCI-H23 lung
A498 renal = system: A498 renal
K-562 leukemia = system: K-562 leukemia
KM12 colon = system: KM12 colon
OVCAR-5 ovarian = system: OVCAR-5 ovarian
A549 NSCLC = system: A549 NSCLC
RPMI-8226 leukemia = system: RPMI-8226 leukemia
UO-31 renal = system: UO-31 renal
COLO 205 colon = system: COLO 205 colon
SK-MEL-5 melanoma = system: SK-MEL-5 melanoma
SK-OV-3 ovarian = system: SK-OV-3 ovarian
UACC-62 melanoma = system: UACC-62 melanoma
SF-268 CNS = system: SF-268 CNS
HOP-92 NSCLC = system: HOP-92 NSCLC
HCT-15 colon = system: HCT-15 colon
NCI-H460 lung = system: NCI-H460 lung
SNB-19 CNS = system: SNB-19 CNS
EKVX NSCLC = system: EKVX NSCLC
UACC-257 melanoma = system: UACC-257 melanoma
HT29 colon = system: HT29 colon
MOLT-4 leukemia = system: MOLT-4 leukemia
U251 CNS = system: U251 CNS
OVCAR-8 ovarian = system: OVCAR-8 ovarian
HCT-116 colon = system: HCT-116 colon
SK-MEL-2 melanoma = system: SK-MEL-2 melanoma
SK-MEL-28 melanoma = system: SK-MEL-28 melanoma
SF-539 CNS = system: SF-539 CNS
HCC-2998 colon = system: HCC-2998 colon
IGROV1 ovarian = system: IGROV1 ovarian
NCI-H226 lung = system: NCI-H226 lung
OVCAR-4 ovarian = system: OVCAR-4 ovarian
MALME-3M melanoma = system: MALME-3M melanoma
SF-295 CNS = system: SF-295 CNS
SW-620 colon = system: SW-620 colon
NCI-H522 lung = system: NCI-H522 lung
SN12C renal = system: SN12C renal
HOP-62 NSCLC = system: HOP-62 NSCLC

SMILES: Cc1c2oc3c(C)ccc(C(=O)N[C@@H]4C(=O)N[C@H](C(C)C)C(=O)N5CCC[C@H]5C(=O)N(C)CC(=O)N(C)[C@@H](C(C)C)C(=O)O[C@H]4C)c3nc-2c(C(=O)N[C@@H]2C(=O)N[C@H](C(C)C)C(=O)N3CCC[C@H]3C(=O)N(C)CC(=O)N(C)[C@@H](C(C)C)C(=O)O[C@H]2C)c(N)c1=O (I: [aThr][dV]P[Sar][NMeV] / II: [aThr][dV]P[Sar][NMeV]; ester I:1-I:C, II:1-II:C; linker I:N-II:N via Actinocin(9to1))
- TGI (P388 leukemia): 0.0154 µM
- GI50 (M19-MEL melanoma): 0.000496 µM
- TGI (M19-MEL melanoma): 0.0194 µM and 0.0127 µM
- TGI (T-47D breast): 34.3 nM [middle of 4 runs]
- GI50 (HOP-18 NSCLC): 0.00903 µM
- TGI (HOP-18 NSCLC): 0.123 µM and 0.125 µM
- GI50 (SNB-78 CNS): 0.00447 µM
- TGI (SNB-78 CNS): 0.117 µM and 0.315 µM
- TGI (SN12K1 renal): 0.148 µM
- GI50 (DMS 114 small cell lung): 0.00101 µM
- TGI (DMS 114 small cell lung): 0.0187 µM and 0.0122 µM
- TGI (P388/ADR leukemia): 0.171 µM
- GI50 (DMS 273 small cell lung): 0.000783 µM
- TGI (DMS 273 small cell lung): 0.026 µM and 0.0178 µM
- TGI (MCF7 breast): 0.0693 µM and 0.25 µM and 0.197 µM
- GI50 (LXFL 529 NSCLC): 0.00139 µM and 0.000348 µM
- TGI (LXFL 529 NSCLC): 0.07 µM and 0.32 µM
- GI50 (XF 498 CNS): 0.000444 µM
- TGI (XF 498 CNS): 0.0128 µM and 0.00303 µM
- GI50 (DLD-1 colon): 0.0019 µM
- TGI (DLD-1 colon): 0.208 µM and 1.2 µM
- GI50 (KM20L2 colon): 0.000964 µM
- TGI (KM20L2 colon): 0.106 µM and 0.0859 µM
- TGI (SNB-75 CNS): 24.6 nM [middle of 6 runs]
- TGI (HS 578T breast): 47.7 nM [middle of 4 runs]

SMILES: COc1nc(NC2OC(CO)C(O)C(O)C2O)c(N)c(=O)[nH]1 (stereo unspecified)
- TGI (NCI/ADR-RES ovarian): > 100 µM
- TGI (RXF 393 renal): > 100 µM
- TGI (LOX IMVI melanoma): > 100 µM
- TGI (HL-60(TB) leukemia): > 100 µM
- TGI (OVCAR-3 ovarian): > 100 µM
- TGI (P388 leukemia): > 100 µM
- TGI (CCRF-CEM leukemia): > 100 µM
- TGI (M19-MEL melanoma): > 100 µM
- TGI (NCI-H23 lung): > 100 µM
- TGI (A498 renal): > 100 µM
- TGI (K-562 leukemia): > 100 µM
- TGI (KM12 colon): > 100 µM
- TGI (HOP-18 NSCLC): > 100 µM
- TGI (OVCAR-5 ovarian): > 100 µM
- TGI (SNB-78 CNS): > 100 µM
- TGI (SN12K1 renal): > 100 µM
- TGI (A549 NSCLC): > 100 µM
- TGI (DMS 114 small cell lung): > 100 µM
- TGI (P388/ADR leukemia): > 100 µM
- TGI (RPMI-8226 leukemia): > 100 µM
- TGI (UO-31 renal): > 100 µM
- TGI (COLO 205 colon): > 100 µM
- TGI (SK-MEL-5 melanoma): > 100 µM
- TGI (SK-OV-3 ovarian): > 100 µM
- TGI (UACC-62 melanoma): > 100 µM
- TGI (SF-268 CNS): > 100 µM
- TGI (DMS 273 small cell lung): > 100 µM
- TGI (HOP-92 NSCLC): > 100 µM
- TGI (HCT-15 colon): > 100 µM
- TGI (NCI-H460 lung): > 100 µM
- TGI (SNB-19 CNS): > 100 µM
- TGI (EKVX NSCLC): > 100 µM
- TGI (MCF7 breast): > 100 µM
- TGI (UACC-257 melanoma): > 100 µM
- TGI (HT29 colon): > 100 µM
- TGI (MOLT-4 leukemia): > 100 µM
- TGI (U251 CNS): > 100 µM
- TGI (XF 498 CNS): > 100 µM
- TGI (OVCAR-8 ovarian): > 100 µM
- TGI (HCT-116 colon): > 100 µM
- TGI (SK-MEL-2 melanoma): > 100 µM
- TGI (DLD-1 colon): > 100 µM
- TGI (SK-MEL-28 melanoma): > 100 µM
- TGI (SF-539 CNS): > 100 µM
- TGI (HCC-2998 colon): > 100 µM
- TGI (KM20L2 colon): > 100 µM
- TGI (SNB-75 CNS): > 100 µM
- TGI (IGROV1 ovarian): > 100 µM
- TGI (NCI-H226 lung): > 31.6 µM
- TGI (OVCAR-4 ovarian): > 100 µM
- TGI (MALME-3M melanoma): > 100 µM
- TGI (SF-295 CNS): > 100 µM
- TGI (SW-620 colon): > 100 µM
- TGI (NCI-H522 lung): > 100 µM
- TGI (SN12C renal): > 100 µM
- TGI (HOP-62 NSCLC): > 100 µM
